Data reported in US11124481B2 (Exelixis, Inc., priority 2014, dated 2021).

Experiments:
U87 tumor cells = experiment: dynamic PET imaging in mice with orthotopically implanted U87 tumor cells; type: in vivo, athymic BALB/C mice
Experimental: Rodent imaging experiments were performed on a dedicated small animal microPET® F120™ scanner (Siemens Preclinical Solutions, Knoxville, Tenn.). Both static and dynamic PET imaging studies were conducted on athymic BALB/C mice (Harlan) and stereotactically implanted U87 tumor cells. The mice were administered about 6.4-7.4 MBq (0.17-0.2 mCi) of [^18F]-Cabozantinib via the tail vein. The mice were anesthetized (2% isofluorane in O2 at a flow rate of 1 mL/min) during tracer injection and throughout the imaging period. After injection, each mouse was laid in the microPET scanner. A 10 minutes transmission scan was acquired using a ^57Co point source prior to either the 2 hour dynamic scan or the 45 min static scan starting at about 15 minutes after injection. Mice were visually monitored for breathing, and a heating pad was used to maintain body temperature throughout the entire procedure. […] Data were analyzed by manually drawing standardized volumes of interest using the Siemens ASIPro VM software package version 6.6. […]
FIG. 3 depicts Positron Emission Tomography (PET) images of mice injected with [^18F]-Cabozantinib. […] A tumor:brain ratio, which is the ratio of the amount of [^18F]-Cabozantinib in the tumor compared to the amount of [^18F]-Cabozantinib in the brain in non-tumor regions, of 2.6 to 2.8 was measured for U87 stereotactically implanted tumor cells. […]

[1] = biodistribution in mice with subcutaneous U87 tumor cells (gamma counter); type: in vivo, athymic BALB/C mice
Experimental: . After acute sedation with isofluorane (2%) animals were sacrificed by decapitation at 15 and 60 min following tracer injection. Blood samples were collected and portions of the liver, kidneys, heart, lungs, muscles, stomach, large intestine, small intestine, bladder, spleen, brain and femur were dissected and weighed. Radioactivity of each sample was measured using a gamma counter (1480 Wizard™ 3 Automatic Gamma Counter, PerkinElmer). Decay-corrected radioactivity concentrations were calculated as percentage of injected dose per gram tissue (% ID/g).

[2] = radiometabolite analysis in mouse plasma (radio-TLC)
[3] = dynamic PET imaging in tumor-free control mice; type: in vivo, athymic BALB/C mice
Experimental: Rodent imaging experiments were performed on a dedicated small animal microPET® F120™ scanner (Siemens Preclinical Solutions, Knoxville, Tenn.). Both static and dynamic PET imaging studies were conducted on athymic BALB/C mice (Harlan) and stereotactically implanted U87 tumor cells. The mice were administered about 6.4-7.4 MBq (0.17-0.2 mCi) of [^18F]-Cabozantinib via the tail vein. The mice were anesthetized (2% isofluorane in O2 at a flow rate of 1 mL/min) during tracer injection and throughout the imaging period. After injection, each mouse was laid in the microPET scanner. A 10 minutes transmission scan was acquired using a ^57Co point source prior to either the 2 hour dynamic scan or the 45 min static scan starting at about 15 minutes after injection. Mice were visually monitored for breathing, and a heating pad was used to maintain body temperature throughout the entire procedure. PET data were reconstructed using an OSEM 2D algorithm into a 128×128×95 image matrix (resulting in final voxel dimensions of 0.79×0.79×0.8 mm). Dead time, decay correction, attenuation correction, and normalization were applied to all PET data. Data were analyzed by manually drawing standardized volumes of interest using the Siemens ASIPro VM software package version 6.6. […]

COc1cc2nccc(Oc3ccc(NC(=O)C4(C(=O)Nc5ccc([18F])cc5)CC4)cc3)c2cc1OC [[^18F]-Cabozantinib, cyclopropane-1,1-dicarboxylic acid [4-(6,7-dimethoxy-quinolin-4-yloxy)-phenyl]-amide(4-[^18F]-fluoro-phenyl)amide]
SUV mean, tumor uptake (U87 tumor cells; orthotopically implanted U87 mice, n=3): 0.50 | time of maximal tumor uptake post injection (U87 tumor cells; time activity curves over 2 hour period): 60 min | tracer uptake blood ([1]; 15 minutes post injection, n=6): 1.8±0.2 % ID/g | tracer uptake brain ([1]; 15 minutes post injection, n=6): 0.9±0.2 % ID/g | tracer uptake femur ([1]; 15 minutes post injection, n=6): 2.9±1.0 % ID/g | tracer uptake heart ([1]; 15 minutes post injection, n=6): 12.9±3.2 % ID/g | tracer uptake kidneys ([1]; 15 minutes post injection, n=6): 14.2±3.0 % ID/g | tracer uptake large intestines ([1]; 15 minutes post injection, n=6): 4.7±2.1 % ID/g | tracer uptake liver ([1]; 15 minutes post injection, n=6): 14.4±3.1 % ID/g | tracer uptake lungs ([1]; 15 minutes post injection, n=6): 6.5±1.1 % ID/g | tracer uptake muscles ([1]; 15 minutes post injection, n=6): 4.4±1.1 % ID/g | tracer uptake small intestines ([1]; 15 minutes post injection, n=6): 7.0±2.4 % ID/g | tracer uptake spleen ([1]; 15 minutes post injection, n=6): 4.7±1.2 % ID/g | tracer uptake stomach ([1]; 15 minutes post injection, n=6): 5.2±1.7 % ID/g | tracer uptake bladder ([1]; 60 minutes post injection, n=6): 4.3±1.2 % ID/g | tracer uptake blood ([1]; 60 minutes post injection, n=6): 2.2±0.3 % ID/g | tracer uptake brain ([1]; 60 minutes post injection, n=6): 0.9±0.1 % ID/g | tracer uptake femur ([1]; 60 minutes post injection, n=6): 1.8±0.8 % ID/g | tracer uptake heart ([1]; 60 minutes post injection, n=6): 9.5±1.5 % ID/g | tracer uptake kidneys ([1]; 60 minutes post injection, n=6): 11.7±1.5 % ID/g | tracer uptake large intestines ([1]; 60 minutes post injection, n=6): 4.6±0.9 % ID/g | tracer uptake liver ([1]; 60 minutes post injection, n=6): 14.0±1.9 % ID/g | tracer uptake lungs ([1]; 60 minutes post injection, n=6): 4.9±0.8 % ID/g | tracer uptake muscles ([1]; 60 minutes post injection, n=6): 4.2±0.3 % ID/g | tracer uptake small intestines ([1]; 60 minutes post injection, n=6): 10.7±1.1 % ID/g | tracer uptake spleen ([1]; 60 minutes post injection, n=6): 3.6±0.6 % ID/g | tracer uptake stomach ([1]; 60 minutes post injection, n=6): 8.4±1.5 % ID/g | crossing of the blood brain barrier ([1]; biodistribution, 15 and 60 minutes): did not appear to cross the blood brain barrier | radiometabolites seen in plasma [2]: Only one radiometabolite | tracer remaining intact in plasma ([2]; 15 and 60 minutes after injection): over 80% | SUV mean, uptake in the brain ([3]; tumor-free control mice, summed PET images): 0.19 | crossing of the blood brain barrier ([3]; tumor-free mice, PET): does not cross the blood brain barrier
